Values quoted from earlier work, collected in patent publication US12275835B1, “High clarity antimicrobial resins” (Phoenix Plastics L.P., priority 2020, dated 2025).

How the values were obtained:
[1] = test system: Gram-positive bacteria; conditions: within 30 seconds
[2] = test system: Gram-negative bacteria; conditions: within 30 seconds

Compound: N=C(NCCCCCCNC(=N)NC(=N)Nc1ccc(Cl)cc1)NC(=N)Nc1ccc(Cl)cc1 [chlorhexidine]
- kill of Gram-positive bacteria [1]: ~100%
- kill of Gram-negative bacteria [2]: ~100%
